Experimental data taken from patent US20260345584A1, “METHODS AND PHARMACEUTICAL COMPOSITIONS FOR TREATING CHEMOTHERAPY-INDUCED PERIPHERAL NEUROPATHY WITH EG5 INHIBITORS” (UNIVERSITY OF MIAMI, priority 2023, published 2026).

Key:
[1] = test system: peripheral neuropathy; test: von Frey behavioral testing; format: in vivo, mouse; conditions: mice, 2 mg/kg paclitaxel i.p. x4
Description: Molecular mechanisms underlying paclitaxel-induced microtubule fasciculation were then investigated. […] Peripheral neuropathy was correlated with these times points using von Frey behavioral testing, which determined that peak neuropathy was present at day 7 (D7). This identified several biological categories during peak neuropathy with the largest clusters being implicated in extracellular matrix organization (e.g. “ECM”, “collagen-containing ECM”, “collagen trimer”) and cell cycle regulation (e.g. “outer kinetochore”, “kinesin complex”, condensed chromosome, centromeric region”, “mitotic spindle”, “microtubules”), consistent with our findings in zebrafish. Interactome analysis using STRING (Szklarczyk et al., 2021, Nucl. Acids Res 49: D605-D612) to predict protein association networks further identified major clusters involved in cell cycle regulation, which contained various kinesins, microtubule and nucleus regulators, as well as one cluster annotated as “disulfide bond”, consistent with a role for oxidative signal activation (Leonard et al., 2011, Current opinion in chemical biology 15: 88-102) (shown in FIG. 3D).

[2] = test system: suprabasal keratinocytes; test: dfMT formation in mouse epidermis; format: in vivo; conditions: single injection 20 mg/kg
Method: The mice in each cage were randomly allocated to different treatment groups. Food and water were available ad libitum and experiments were performed during the light cycle (7:00 am to 7:00 pm). Animals were euthanized via CO2 asphyxiation, followed by cervical dislocation. […] The animal's husbandry conformed with established NIH and Institutional Animal Care and Use Committee (IACUC) approved protocols.
Paws and back skin were collected at predetermined time points, placed in 10% formalin, and stored overnight at 4 °C. Samples were embedded in paraffin and sectioned at 7 μm, deparaffinized, washed with PBS, and incubated at room temperature for 5 min in 0.1% Triton X-100 in PBS and then blocked for 30 min (5% BSA). Sections were incubated with primary antibody diluted in blocking solution, overnight at 4 °C in a humidity chamber. Following PBS washes, sections were incubated for 1 h at room temperature with a secondary antibody. Tissues were mounted and assessed for staining. Antibodies used were against detyrosinated tubulin Millipore AB3201, p-KIF11 Invitrogen PA5-38647, alpha-tubulin Proteintech 66031-1-Ig, mouse Alexa Fluor 488 Invitrogen A21202, and rabbit Alexa flour 546 Invitrogen A10040. DAPI was used for nuclei counterstaining. […]

[3] = test system: mmp13a; test: qPCR mmp13 expression, whole larvae; format: in vivo, zebrafish; conditions: wildtype, 48 hr paclitaxel
Method: Zebrafish larvae (AB/Nacre) were treated in pools of ~20-30 larvae per treatment per biological replicate (BR); each BR consisted of embryos from distinct parents. Larvae were collected into 1.5 ml reaction tubes post-treatment and RNA extraction was performed using the rNeasy Plus Micro kit (Qiagen, Cat. No. 74034). cDNA was synthesized from ~300 ng total RNA using the Superscript IV VILO kit (Thermo Fisher, Cat. No. 11756050). Primers in target genes were designed wherein primers annealed in two exons separated by one or several large introns that could not be amplified with the selected PCR settings, to avoid genomic DNA contamination. Quantitative PCR was performed with the Applied Biosystems QuantStudio 3 using PowerUp SYBR Green (ThermoFisher, Cat No. A25741). Amplification signals for expressed target genes were normalized to zebrafish 18S rRNA signals. qPCR conditions were used as follows: 95 °C for 10 minutes, 40 cycles of 95 °C for 15 seconds, 50 °C for 30 seconds, 72 °C for 30 seconds. Each biological replicate was run in quadruplicate. Data were presented as relative expression compared to control using the delta-vdelta Ct (2^^-ΔΔCt) method.
Stretching was performed after 96 hr treatment, followed by 2 hr post-stretch fixation, and staining for detection of acetylated tubulin in axons.

CC(=O)O[C@H]1C(=O)[C@@]2(C)[C@H]([C@H](OC(=O)c3ccccc3)[C@]3(O)C[C@H](OC(=O)[C@H](O)[C@@H](NC(=O)c4ccccc4)c4ccccc4)C(C)=C1C3(C)C)[C@]1(OC(C)=O)CO[C@@H]1C[C@@H]2O [paclitaxel]
day of peak neuropathy [1]: 7 days | dfMT formation in mouse epidermis [2]: resulted in dfMT formation in a subset of suprabasal keratinocytes | mmp13 expression [3]: increased mmp13 expression
